As usually defined, the EC50 is the midpoint of the concentration-response curve.

Consider four molecules from publication PMC9317966, “Structure-function analysis of the AMPK activator SC4 and identification of a potent pan AMPK activator” (Biochemical Journal, 2022).

The target in one assay is T1, human GST-AMPK α1β1γ1 (Homo sapiens, UniProt Q13131+Q9Y478).
T1 construct: triply transfected with full-length AMPK α1 or α2 (NH2-terminal GST fusion, pDEST27 vector); full-length AMPK α1 or α2 (NH2-terminal GST fusion, pDEST27 vector), β1 or β2 (COOH-terminal FLAG fusion, pcDNA3.1 vector); FLAG (C); made in house; host or cells: HEK293T/17 cells, transient triple transfection
T1 sequence (Q13131 whole entry, the tested form may be a part): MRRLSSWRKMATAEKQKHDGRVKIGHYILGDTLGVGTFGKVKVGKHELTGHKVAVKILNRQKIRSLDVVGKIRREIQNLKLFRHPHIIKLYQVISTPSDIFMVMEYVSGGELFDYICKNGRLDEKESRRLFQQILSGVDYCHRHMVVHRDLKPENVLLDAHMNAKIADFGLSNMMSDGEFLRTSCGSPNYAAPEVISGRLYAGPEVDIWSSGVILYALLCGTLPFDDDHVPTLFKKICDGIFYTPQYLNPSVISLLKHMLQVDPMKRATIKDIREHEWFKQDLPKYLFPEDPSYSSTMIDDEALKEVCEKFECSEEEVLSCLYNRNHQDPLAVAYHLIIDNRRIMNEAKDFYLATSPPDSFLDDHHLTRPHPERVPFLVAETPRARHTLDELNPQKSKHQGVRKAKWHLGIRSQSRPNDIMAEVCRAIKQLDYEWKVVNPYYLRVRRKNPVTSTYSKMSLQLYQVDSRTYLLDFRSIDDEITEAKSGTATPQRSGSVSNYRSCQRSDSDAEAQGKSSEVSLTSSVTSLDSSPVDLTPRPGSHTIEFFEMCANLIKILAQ
T1 sequence (Q9Y478 whole entry, the tested form may be a part): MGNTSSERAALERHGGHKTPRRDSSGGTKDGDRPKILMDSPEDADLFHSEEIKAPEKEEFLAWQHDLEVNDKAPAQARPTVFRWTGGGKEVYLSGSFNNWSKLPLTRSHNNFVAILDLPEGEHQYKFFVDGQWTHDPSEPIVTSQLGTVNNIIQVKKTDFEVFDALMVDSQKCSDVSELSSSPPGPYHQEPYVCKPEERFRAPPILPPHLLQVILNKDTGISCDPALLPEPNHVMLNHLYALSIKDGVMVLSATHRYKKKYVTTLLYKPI
T1 sequence (P54619 whole entry partner, the tested form may be a part): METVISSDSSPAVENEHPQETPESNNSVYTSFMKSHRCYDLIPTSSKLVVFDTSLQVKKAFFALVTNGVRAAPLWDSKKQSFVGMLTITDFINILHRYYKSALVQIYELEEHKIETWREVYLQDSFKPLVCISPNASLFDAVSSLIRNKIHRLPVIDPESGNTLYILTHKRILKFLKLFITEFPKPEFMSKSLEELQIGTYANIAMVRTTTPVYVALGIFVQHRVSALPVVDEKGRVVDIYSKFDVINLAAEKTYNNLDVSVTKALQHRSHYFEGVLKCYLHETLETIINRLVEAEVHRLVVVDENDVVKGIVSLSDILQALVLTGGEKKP
The assay can be described thus: Radiolabel SAMS kinase assay, GST-AMPK from HEK293T/17 cells immobilised on glutathione-Sepharose. The settings on record: for fold AMPK activation relative to vehicle: 1 µM compound. The assay is classed as biochemical. An excerpt: (§1) We generated a series of compounds to investigate whether modification of the SC4 2-hydroxybiphenyl LHS fragment affects isoform selectivity, some of which (MSG008-MSG011) are presented in Table 1. We also synthesised compound MSG012 (example I-3-54 [32]), which was reported to activate α2β2γ1 with ∼100-fold greater potency compared with α1β1γ1. MSG012 differs from SC4 by substitution of the 2-hydroxyphenyl LHS fragment with 3-cyclohexen-4-yl-1-carboxylic acid, and 2-methylbenzoic acid RHS fragment with 1-hydroxy-N,N-dimethylcyclohexan-4-yl-1-carboxamide. Our initial screen involved measuring the activity of recombinant human GST-AMPK complexes expressed in HEK293T/17 cells and immobilised on glutathione-Sepharose (Supplementary Figure S1). Enzyme activity was measured by radiolabelling the synthetic SAMS peptide substrate in the absence or presence of 1 µM compound. Consistent with our previous characterisation, SC4 activated α1β1γ1, α2β1γ1 and α2β2γ1 >2.3-fold, and weakly activated α1β2γ1 1.3-fold (Figure 1A). […] The γ isoform had little influence on AMPK activation by MSG011 as most γ2 and γ3 complexes were activated >2.2-fold at 1 µM, with α1β2γ2 being the only exception (1.6-fold activation). […] Accordingly, MSG010, MSG011 and MSG012 can be classified as pan AMPK activators.
(§2) Adherent HEK293T/17 cells at ∼50% confluency were triply transfected with full-length AMPK α1 or α2 (NH2-terminal GST fusion, pDEST27 vector), β1 or β2 (COOH-terminal FLAG fusion, pcDNA3.1 vector), and γ1, γ2 or γ3 (NH2-terminal HA fusion, pMT2 vector) in the presence of FuGENE HD transfection reagent (Promega) as per the manufacturers protocol. Cells were harvested 48 hours post-transfection by first gently washing in ice cold phosphate buffered saline (PBS; Sigma–Aldrich), then scraping in ice cold lysis buffer (50 mM TRIS pH 7.5, 150 mM NaCl, 10% (v/v) glycerol, 50 mM NaF, 5 mM sodium pyrophosphate, 1% (v/v) Triton X-100, cOmplete protease inhibitor cocktail). Lysates were clarified by centrifugation (16 000g, 3 min, 4°C), flash frozen in liquid N2 and stored at −80°C until analysis. For radioactive kinase assays, AMPK was immobilised on glutathione Sepharose 4B resin (GE Healthcare) by incubation with lysates for 1.5 h at 4°C. Following centrifugation (1000g, 3 min, 4°C), the resin was washed twice in purification buffer (50 mM HEPES pH 7.4, 150 mM NaCl, 10% (v/v) glycerol, 0.02% (v/v) Tween-20), once in 50 mM HEPES pH 7.4 with 0.02% (v/v) Tween-20, then resuspended to a 50% slurry with 50 mM HEPES pH 7.4 and 10 µl added to the activity assays. For in solution kinase assays, α1β1γ1 AMPK was eluted from glutathione-Sepharose by incubating with purification buffer supplemented with 40 mM reduced glutathione (Sigma–Aldrich).
(§3) AMPK activity was determined by phosphorylation of the SAMS peptide (Purar Chemicals, sequence: NH2-HMRSAMSGLHLVKRR-COOH) in a 25 µl reaction volume containing 100 µM SAMS peptide, 5 mM MgCl2, 200 µM ATP, [γ-^32P]-ATP (PerkinElmer) and assay buffer (50 mM HEPES pH 7.4, 1 mM DTT and 0.02% (v/v) Tween-20) and purified AMPK. Phosphotransferase activity was conducted at 30°C for 10 min and reactions were quenched by spotting 15 µl onto phosphocellulose ion-exchange chromatography paper (made in-house), followed by repeated washes in 1% H3PO4 (Merck Millipore). Ultima Gold liquid scintillation fluid (5 ml; PerkinElmer) was added to vials containing dried phosphocellulose papers, and the level of ^32P-transfer to the SAMS peptide was determined using a Tri-Carb 2900TR liquid scintillation counter (PerkinElmer).

Another assay deals with T2, human GST-AMPK α1β2γ1 (Homo sapiens, UniProt O43741+Q13131).
T2 construct: triply transfected with full-length AMPK α1 or α2 (NH2-terminal GST fusion, pDEST27 vector); full-length AMPK α1 or α2 (NH2-terminal GST fusion, pDEST27 vector), β1 or β2 (COOH-terminal FLAG fusion, pcDNA3.1 vector); FLAG (C); made in house; host or cells: HEK293T/17 cells, transient triple transfection
T2 sequence (Q13131 whole entry, the tested form may be a part): as the sequence (Q13131 whole entry, the tested form may be a part) above
T2 sequence (O43741 whole entry, the tested form may be a part): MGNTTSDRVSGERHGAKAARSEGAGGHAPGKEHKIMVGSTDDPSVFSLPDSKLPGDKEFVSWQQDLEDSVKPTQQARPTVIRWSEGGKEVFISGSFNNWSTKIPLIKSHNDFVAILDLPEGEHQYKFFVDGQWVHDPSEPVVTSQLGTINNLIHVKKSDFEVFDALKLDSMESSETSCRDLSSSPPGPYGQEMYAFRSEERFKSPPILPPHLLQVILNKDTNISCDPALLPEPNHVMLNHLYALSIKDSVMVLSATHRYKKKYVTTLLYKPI
T2 sequence (P54619 whole entry partner, the tested form may be a part): as the sequence (P54619 whole entry partner, the tested form may be a part) above
Described as above. The assay is classed as biochemical. The settings on record: 1 µM compound.
Source text: as §1, §2, §3

The target of another assay is T3, human GST-AMPK α2β1γ1 (Homo sapiens, UniProt P54646+Q9Y478).
T3 construct: triply transfected with full-length AMPK α1 or α2 (NH2-terminal GST fusion, pDEST27 vector); full-length AMPK α1 or α2 (NH2-terminal GST fusion, pDEST27 vector), β1 or β2 (COOH-terminal FLAG fusion, pcDNA3.1 vector); FLAG (C); made in house; host or cells: HEK293T/17 cells, transient triple transfection
T3 sequence (P54646 whole entry, the tested form may be a part): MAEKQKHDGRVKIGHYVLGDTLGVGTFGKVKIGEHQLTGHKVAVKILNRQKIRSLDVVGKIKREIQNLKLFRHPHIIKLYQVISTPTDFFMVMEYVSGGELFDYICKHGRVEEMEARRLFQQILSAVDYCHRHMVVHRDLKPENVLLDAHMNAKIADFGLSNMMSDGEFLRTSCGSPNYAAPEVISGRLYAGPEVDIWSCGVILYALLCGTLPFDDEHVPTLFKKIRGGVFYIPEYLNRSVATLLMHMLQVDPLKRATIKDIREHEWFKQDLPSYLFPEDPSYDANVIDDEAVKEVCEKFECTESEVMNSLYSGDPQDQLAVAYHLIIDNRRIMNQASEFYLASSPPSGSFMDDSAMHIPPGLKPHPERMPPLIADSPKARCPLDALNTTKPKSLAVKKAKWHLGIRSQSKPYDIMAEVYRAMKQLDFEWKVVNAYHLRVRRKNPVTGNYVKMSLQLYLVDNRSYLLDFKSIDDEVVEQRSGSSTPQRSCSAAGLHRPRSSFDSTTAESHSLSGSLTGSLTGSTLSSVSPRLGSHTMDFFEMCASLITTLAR
T3 sequence (Q9Y478 whole entry, the tested form may be a part): as the sequence (Q9Y478 whole entry, the tested form may be a part) above
T3 sequence (P54619 whole entry partner, the tested form may be a part): as the sequence (P54619 whole entry partner, the tested form may be a part) above
Described as above. The assay is classed as biochemical. Particulars: 1 µM compound.
Source text: as §1, §2, §3

The target in another assay is T4, human GST-AMPK α2β2γ1 (Homo sapiens, UniProt O43741+P54646).
T4 construct: triply transfected with full-length AMPK α1 or α2 (NH2-terminal GST fusion, pDEST27 vector); full-length AMPK α1 or α2 (NH2-terminal GST fusion, pDEST27 vector), β1 or β2 (COOH-terminal FLAG fusion, pcDNA3.1 vector); FLAG (C); made in house; host or cells: HEK293T/17 cells, transient triple transfection
T4 sequence (P54646 whole entry, the tested form may be a part): as the sequence (P54646 whole entry, the tested form may be a part) above
T4 sequence (O43741 whole entry, the tested form may be a part): as the sequence (O43741 whole entry, the tested form may be a part) above
T4 sequence (P54619 whole entry partner, the tested form may be a part): as the sequence (P54619 whole entry partner, the tested form may be a part) above
Described as above. The assay is classed as biochemical. Particulars: 1 µM compound.
Source text: as §1, §2, §3

The target in a further assay is γ1AMPK complexes. Kind of assay: Radiolabel kinase assay, immobilised GST-tagged γ1AMPK (stated across γ1 complexes). The assay is classed as biochemical, human.
Source text: We directly compared in vitro potencies of pan activators by performing radiolabel kinase assays with γ1AMPK complexes. Initially, we used GST-tagged γ1AMPK expressed in HEK293T/17 cells and immobilised on glutathione-Sepharose (Figure 2 and Table 2). […] These assays used AMPK purified from Sf9 insect cells or E. coli that was pre-treated with CaMKK2. […] However, relative to immobilised GST-α2β1γ1 from HEK293T/17 cells, His-tagged and myristoylated α2β1γ1 AMPK (expressed in E. coli, CaMKK2-treated and assayed in solution) was at least 10-fold more sensitive to activation by both MK-8722 and MSG011 (Supplementary Figure S3B), indicating the GST-affinity tag or CaMKK2 treatment may exert some influence on sensitivity to these activators.
as §2
AMPK activity was determined by phosphorylation of the SAMS peptide (Purar Chemicals, sequence: NH2-HMRSAMSGLHLVKRR-COOH) in a 25 µl reaction volume containing 100 µM SAMS peptide, 5 mM MgCl2, 200 µM ATP, [γ-^32P]-ATP (PerkinElmer) and assay buffer (50 mM HEPES pH 7.4, 1 mM DTT and 0.02% (v/v) Tween-20) and purified AMPK. […] Ultima Gold liquid scintillation fluid (5 ml; PerkinElmer) was added to vials containing dried phosphocellulose papers, and the level of ^32P-transfer to the SAMS peptide was determined using a Tri-Carb 2900TR liquid scintillation counter (PerkinElmer).

For the next assay, the system named is α1β1γ1 AMPK. Set-up: method as in PMID 29657085. Particulars: α1β1γ1, in solution, mammalian cell-expressed AMPK; cited from earlier work.
The subject of a further assay is α1β2γ1 AMPK. Set-up: method as in PMID 29657085. The settings on record: α1β2γ1, in solution, mammalian cell-expressed AMPK, cited from earlier work.
For the next assay, the system named is α2β2γ1 AMPK. On the set-up: method as in PMID 29657085. Particulars: α2β2γ1, in solution, mammalian cell-expressed AMPK; cited from earlier work.
The subject of assay [1] is AMPK β1-Ser108 exchanged for Ala. Set-up: method as in PMID 24352254, PMID 29657085. The settings on record: cited from earlier work.

Take `Cc1ccc(Oc2nc3nc(-c4ccc(C5=CCC(C(=O)O)CC5)cc4)c(Cl)cc3[nH]2)cc1C(=O)O` (centres unmarked) [MSG010, 4′-(2-(3-carboxy-4-methylphenoxy)-6-chloro-1H-imidazo[4,5-b]pyridin-5-yl)-2,3,4,5-tetrahydro-[1,1′-biphenyl]-4-carboxylic acid]: the “fold AMPK activation relative to vehicle” value on human GST-AMPK α1β1γ1, at human GST-AMPK α1β2γ1, on human GST-AMPK α2β1γ1 and at human GST-AMPK α2β2γ1 was above 2.2 fold throughout.

The molecule `OCC1(c2ccc(-c3cc4nc(O[C@@H]5CO[C@H]6[C@@H]5OC[C@H]6O)[nH]c4cc3Cl)cc2)CC1` [PF-739, reference compound] had a Max. fold activation on human GST-AMPK α1β1γ1 (immobilised α1β1γ1) of 1.7 fold. Also, the concentration giving a half-maximal response (EC50) stood at 2010 nM on human GST-AMPK α1β1γ1 (immobilised α1β1γ1, 0–30 µM activator) and 2000 nM at γ1AMPK complexes (immobilised GST-γ1AMPK, read-out: EC50 values for γ1AMPK activation). For the same molecule, the “EC50 fold higher than previously determined by high-throughput fluorescence-based assays in solution” value at γ1AMPK complexes (compared with refs 17, 18) is on record as 100–1000 fold.

Consider `Cc1ccc(Oc2nc3nc(-c4ccc(-c5ccccc5O)cc4)c(Cl)cc3[nH]2)cc1C(=O)O` [SC4], for which the “fold AMPK activation relative to vehicle” value at human GST-AMPK α1β1γ1 is recorded as above 2.3 fold; at human GST-AMPK α1β2γ1 it was 1.3 fold; on human GST-AMPK α2β1γ1 it was above 2.3 fold; on human GST-AMPK α2β2γ1, above 2.3 fold. The 50% effective concentration (EC50) in the assay on α1β1γ1 AMPK was 5.1 nM; in the assay with α1β2γ1 AMPK (R2 for curve fit = 0.773), 28.6 nM; in the assay with α2β2γ1 AMPK, 17.2 nM. For the same molecule, the Max. fold activation was 2.9 fold with α1β1γ1 AMPK, 1.4 fold in the assay on α1β2γ1 AMPK and 2.5 fold with α2β2γ1 AMPK. The “reduction of activating potency on loss of β1-Ser108 phosphorylation via exchange for Ala” value in [1] is listed as around 4 fold.

As to `Cc1ccc(Oc2nc3cc(-c4ccc5c(ccn5C)c4)c(Cl)cc3[nH]2)cc1C(=O)O` [compound 991], the “reduction of activating potency on loss of β1-Ser108 phosphorylation via exchange for Ala” value in assay [1] is listed as 40 fold.
